Results published in ChEMBL document CHEMBL1125439, “Inhibitors of human purine nucleoside phosphorylase. Synthesis and biological activities of 8-amino-3-benzylhypoxanthine and related analogues” (J Med Chem, 1992).

Tests used:
[1] = tested on: MOLT-4; assay: cells; settings: Homo sapiens
[2] = target: T1, Purine nucleoside phosphorylase (Homo sapiens) (UniProt P00491); assay: Inhibitory activity against Purine nucleoside phosphorylase evaluated by radiochemical assay; type: tissue-based; settings: Urine; concentration not given here
T1 sequence (whole entry): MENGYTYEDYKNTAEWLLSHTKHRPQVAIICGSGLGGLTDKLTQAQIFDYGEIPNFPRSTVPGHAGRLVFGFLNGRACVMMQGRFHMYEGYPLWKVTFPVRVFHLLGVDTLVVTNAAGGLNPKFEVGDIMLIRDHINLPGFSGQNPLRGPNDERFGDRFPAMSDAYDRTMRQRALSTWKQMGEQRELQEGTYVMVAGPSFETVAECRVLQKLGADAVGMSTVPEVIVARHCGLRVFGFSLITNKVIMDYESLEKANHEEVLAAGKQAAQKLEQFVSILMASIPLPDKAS

[3] = target: T2, Purine nucleoside phosphorylase (Homo sapiens, UniProt P00491)
T2 sequence (P00491 whole entry): T1 sequence (whole entry)

[4] = target: T1, Purine nucleoside phosphorylase (Homo sapiens); assay: Inhibitory activity against Purine nucleoside phosphorylase evaluated by radiochemical assay concentration <300 uM; type: tissue-based
[5] = target: T1, Purine nucleoside phosphorylase (Homo sapiens); assay: Inhibitory activity against Purine nucleoside phosphorylase evaluated by radiochemical assay <300 uM; type: tissue-based; settings: Urine
[6] = target: T1, Purine nucleoside phosphorylase (Homo sapiens); assay: Inhibitory activity against Purine nucleoside phosphorylase evaluated by radiochemical assay at <300 uM; type: tissue-based; settings: Urine

IC50 [1] [µM]	IC50 [3] [µM]	SMILES	other results
1.47	–	Nc1nc(O)c2nc(N)n(Cc3ccco3)c2n1	–
–	–	Oc1nc(S)n(Cc2ccccc2)c2ncnc1-2	inhibition [2]: 78.3%
–	95	Nc1[nH]c[n+](Cc2ccccc2)c2ncnc1-2	–
–	8.9	COc1ccc(Cn2c(N)nc(O)c3nc(N)nc2-3)cc1	–
–	> 150	Nc1nc(O)c2nc(NC=O)nc-2n1Cc1ccccc1	–
–	–	O=[N+]([O-])c1ccc(Cn2cnc(O)c3ncnc2-3)cc1	inhibition [4]: 13.1%
–	131	Nc1nc2c(S)ncn(Cc3ccccc3)c-2n1	–
–	–	CSc1nc(O)c2ncnc-2n1Cc1ccccc1	inhibition [4]: 23.3%
42.5	5.2	Nc1nc2c(O)nc(N)n(Cc3ccco3)c-2n1	–
–	> 75	CSc1nc(O)c2nc(N)nc-2n1Cc1ccccc1	–
–	–	Oc1ncn(Cc2ccc(Cl)c(Cl)c2)c2ncnc1-2	inhibition [4]: 36.9%
> 25	4.6	Nc1nc2c(O)nc(N)n(Cc3cccs3)c-2n1	–
0.77	0.47	Nc1nc(O)c2nc(N)n(Cc3ccccc3)c2n1	–
35	29.6	Nc1nc(O)c2ncn(Cc3ccccc3)c2n1	–
28.6	13.4	O=c1[nH]c(=O)n(Cc2ccccc2)c2nc[nH]c12	–
204	112	Oc1ncn(Cc2ccccc2)c2ncnc1-2	inhibition [5]: 81%
–	–	Oc1ncn(CCc2ccccc2)c2ncnc1-2	inhibition [4]: 26.8%
0.82	–	Nc1nc(O)c2nc(N)n(Cc3cccs3)c2n1	–
–	–	N#Cc1ccc(Cn2cnc(O)c3ncnc2-3)cc1	inhibition [4]: 22.2%
–	–	Oc1nc(S)n(CCc2ccccc2)c2ncnc1-2	inhibition [6]: 10.9%
